What is called Ki is the equilibrium dissociation constant of an inhibitor or competing ligand from its target. The low end stands for tighter binding, the high end for weaker binding. What is called inhibition is the change of the read-out against control, counted positive when it falls. Read a low inhibition as little suppression.

Test [1] concerns Mus musculus. Nature of the test: Acquisition time in (R)-PIA) induced avoidance test (performed in mice) for antagonistic activity after peroral administration of 20 mg/kg. Format: functional. The settings on record: route oral.
Test [2] relates to Rattus norvegicus. Put plainly: Retention time in Scopolamine induced avoidance test (performed in rat) for antagonistic activity after peroral administration of 20 mg/kg. Format: functional, organism-based. Also noted: dose 20 mg/kg.
For another test, the target named is Adenosine A2 receptor (Homo sapiens, UniProt P29275+P29274). Nature of the test: Binding affinity towards Adenosine A2 receptor of human platelets with [125I]-N6-aminobenzyladenosine.
Test [3] relates to Mus musculus. Nature of the test: Acquisition time in (R)-PIA) induced avoidance test (performed in mice) for antagonistic activity after p.o. administration of 0.31 mg/kg. The following applies: route oral. The format is functional.
Test [4] has as its system Rattus norvegicus. Put plainly: Retention time in Scopolamine induced avoidance test (performed in rat) for antagonistic activity after p.o. administration of 0.08 mg/kg. The format is functional, organism-based. Also noted: dose 0.08 mg/kg.
Test [5] concerns Rattus norvegicus. Put plainly: Acquisition time in Scopolamine induced avoidance test (performed in rat) for antagonistic activity after p.o. administration of 5 mg/kg. The following applies: route oral. The format is functional.
In test [6] the test system is Mus musculus. Put plainly: Retention time in (R)-PIA) induced avoidance test (performed in mice) for antagonistic activity after peroral administration of 20 mg/kg. The format is functional, organism-based. Also noted: dose 20 mg/kg.
Test [7] has as its system Rattus norvegicus. Put plainly: Acquisition time in Scopolamine induced avoidance test (performed in rat) for antagonistic activity after p.o. administration of 0.31 mg/kg. The format is functional. The following applies: route oral.
Test [8] has as its system Mus musculus. Put plainly: Acquisition time in (R)-PIA) induced avoidance test (performed in mice) for antagonistic activity after peroral administration of 0.02 mg/kg. The following applies: route oral.
The test system of test [9] is Rattus norvegicus. Nature of the test: Retention time in Scopolamine induced avoidance test (performed in rat) for antagonistic activity after p.o. administration of 0.31 mg/kg. The format is functional, organism-based. Also noted: dose 0.31 mg/kg.
The test system of test [10] is Mus musculus. Put plainly: Retention time in (R)-PIA) induced avoidance test (performed in mice) for antagonistic activity after peroral administration of 0.31 mg/kg. The format is functional, organism-based. Also noted: dose 0.31 mg/kg.
Test [11] has as its system Mus musculus. Nature of the test: Retention time in (R)-PIA) induced avoidance test (performed in mice) for antagonistic activity after p.o. administration of 1.25 mg/kg. Format: functional, organism-based. Also noted: dose 1.25 mg/kg.
In test [12] the test system is Rattus norvegicus. Nature of the test: Retention time in Scopolamine induced avoidance test (performed in rat) for antagonistic activity after peroral administration of 1.25 mg/kg. Format: functional, organism-based. Also noted: dose 1.25 mg/kg.
Test [13] has as its system Rattus norvegicus. Put plainly: Retention time in Scopolamine induced avoidance test (performed in […]) for antagonistic activity after peroral administration of 5 mg/kg. The format is functional, organism-based. Also noted: dose 5 mg/kg.
Test [14] relates to Mus musculus. Put plainly: Acquisition time in (R)-PIA) induced avoidance test (performed in mice) for antagonistic activity after peroral administration of 5 mg/kg. The format is functional. The settings on record: route oral.
The test system of test [15] is Mus musculus. Nature of the test: Acquisition time in (R)-PIA) induced avoidance test (performed in mice) for antagonistic activity after peroral administration of 0.08 mg/kg. The settings on record: route oral. The format is functional.
In test [16] the test system is Mus musculus. Put plainly: Retention time in (R)-PIA) induced avoidance test (performed in mice) for antagonistic activity after peroral administration of 0.08 mg/kg. The format is functional, organism-based. Also noted: dose 0.08 mg/kg.
The test system of test [17] is Mus musculus. Nature of the test: Acquisition time in (R)-PIA) induced avoidance test (performed in mice) for antagonistic activity after p.o. administration of 1.25 mg/kg. Format: functional. The settings on record: route oral.
Test [18] concerns Rattus norvegicus. Put plainly: Acquisition time in Scopolamine induced avoidance test (performed in rat) for antagonistic activity after peroral administration of 1.25 mg/kg. Format: functional. The settings on record: route oral.
For test [19], the target named is T1, Adenosine receptor A1 (Bos taurus) (UniProt P28190).
T1 sequence (whole entry): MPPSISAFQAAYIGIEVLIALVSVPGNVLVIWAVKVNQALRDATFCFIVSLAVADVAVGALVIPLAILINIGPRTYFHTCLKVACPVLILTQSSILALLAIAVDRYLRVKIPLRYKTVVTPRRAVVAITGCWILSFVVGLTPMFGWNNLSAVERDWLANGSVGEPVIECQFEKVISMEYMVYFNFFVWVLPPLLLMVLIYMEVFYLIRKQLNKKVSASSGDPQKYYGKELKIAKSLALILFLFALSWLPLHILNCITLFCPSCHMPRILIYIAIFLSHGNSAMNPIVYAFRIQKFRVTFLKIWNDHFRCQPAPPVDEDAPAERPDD
Nature of the test: Binding affinity for Adenosine A1 receptor of bovine brain at 10e-5 M with [125I]-N6-aminobenzyladenosine.

Test [20] relates to Rattus norvegicus. Put plainly: Acquisition time in Scopolamine induced avoidance test (performed in rat) for antagonistic activity after p.o. administration of 0.08 mg/kg. The following applies: route oral. The format is functional.
Test [21] relates to Mus musculus. Put plainly: Retention time in (R)-PIA) induced avoidance test (performed in mice) for antagonistic activity after peroral administration of 0.02 mg/kg.
In test [22] the test system is Mus musculus. Nature of the test: Retention time in (R)-PIA) induced avoidance test (performed in mice) for antagonistic activity after peroral administration of 5 mg/kg. Format: functional, organism-based. Also noted: dose 5 mg/kg.
Test [23] relates to Rattus norvegicus. Put plainly: Acquisition time in Scopolamine induced avoidance test (performed in rat) for antagonistic activity after peroral administration of 20 mg/kg. Format: functional. The following applies: route oral.
The subject of test [24] is Mus musculus. Put plainly: Retention time in (R)-PIA) induced avoidance test (performed in mice) for antagonistic activity after peroral administration of 1.25 mg/kg (n=15) (P<0.005). Format: functional, organism-based. Also noted: dose 1.25 mg/kg.
For test [25], the system named is Rattus norvegicus. Put plainly: Acquisition time in Scopolamine induced avoidance test (performed in rat) for antagonistic activity after peroral administration of 0.31 mg/kg (n=18). Format: functional. The settings on record: route oral.
In test [26] the test system is Mus musculus. Put plainly: Retention time in (R)-PIA) induced avoidance test (performed in mice) for antagonistic activity after peroral administration of 0.08 mg/kg (n=15) (P<0.005). Format: functional, organism-based. Also noted: dose 0.08 mg/kg.
The subject of test [27] is Mus musculus. Nature of the test: Acquisition time in (R)-PIA) induced avoidance test (performed in mice) for antagonistic activity after peroral administration of 0.08 mg/kg (n=15). The format is functional. The settings on record: route oral.
Test [28] deals with Rattus norvegicus. Put plainly: Retention time in Scopolamine induced avoidance test (performed in […]) for antagonistic activity after peroral administration of 1.25 mg/kg (n=18) (P<0.05). Format: functional, organism-based. Also noted: dose 1.25 mg/kg.
Test [29] relates to Rattus norvegicus. Nature of the test: Retention time in Scopolamine induced avoidance test (performed in rat) for antagonistic activity after peroral administration of 0.02 mg/kg (n=18) (P<0.05). Format: functional, organism-based. Also noted: dose 0.02 mg/kg.
Test [30] deals with Mus musculus. Nature of the test: Retention time in (R)-PIA) induced avoidance test (performed in mice) for antagonistic activity after peroral administration of 0.31 mg/kg (n=15) (P<0.01). Also noted: dose 0.31 mg/kg. The format is functional, organism-based.
For test [31], the system named is Mus musculus. Nature of the test: Tested for locomotor activity after oral administration of […] for 120 min. The format is functional.
In test [32] the test system is Rattus norvegicus. Put plainly: Retention time in Scopolamine induced avoidance test (performed in rat) for antagonistic activity after peroral administration of 0.08 mg/kg (n=18) (P<0.05). Format: functional, organism-based. Also noted: dose 0.08 mg/kg.
The subject of test [33] is Mus musculus. Put plainly: Tested for locomotor activity after oral administration of 10 mg/kg for 120 min. Format: functional.
For test [34], the system named is Mus musculus. Put plainly: Retention time in (R)-PIA) induced avoidance test (performed in mice) for antagonistic activity after peroral administration of 20 mg/kg (n=15) (P<0.05). The format is functional, organism-based. Also noted: dose 20 mg/kg.
The subject of test [35] is Rattus norvegicus. Put plainly: Retention time in Scopolamine induced avoidance test (performed in rat) for antagonistic activity after peroral administration of 0.31 mg/kg (n=18) (P<0.005). Format: functional, organism-based. Also noted: dose 0.31 mg/kg.
For test [36], the system named is Rattus norvegicus. Nature of the test: Retention time in Scopolamine induced avoidance test (performed in rat) for antagonistic activity after peroral administration of 5 mg/kg (n=18) (P<0.05). Format: functional, organism-based. Also noted: dose 5 mg/kg.
The test system of test [37] is Mus musculus. Nature of the test: Acquisition time in (R)-PIA) induced avoidance test (performed in mice) for antagonistic activity after peroral administration of 5 mg/kg (n=15). The format is functional. The following applies: route oral.
Test [38] concerns Mus musculus. Nature of the test: Acquisition time in (R)-PIA) induced avoidance test (performed in mice) for antagonistic activity after peroral administration of 1.25 mg/kg (n=15). The format is functional. The following applies: route oral.
Test [39] deals with Rattus norvegicus. Nature of the test: Acquisition time in Scopolamine induced avoidance test (performed in rat) for antagonistic activity after peroral administration of 0.08 mg/kg (n=18). Format: functional. The following applies: route oral.
For test [40], the system named is Rattus norvegicus. Nature of the test: Acquisition time in Scopolamine induced avoidance test (performed in rat) for antagonistic activity after peroral administration of 0.02 mg/kg (n=18). Format: functional. The settings on record: route oral.
In test [41] the test system is Rattus norvegicus. Put plainly: Acquisition time in Scopolamine induced avoidance test (performed in rat) for antagonistic activity after peroral administration of 1.25 mg/kg (n=18). Format: functional. The settings on record: route oral.
Test [42] deals with Mus musculus. Put plainly: Acquisition time in (R)-PIA) induced avoidance test (performed in mice) for antagonistic activity after peroral administration of 0.31 mg/kg (n=15). The format is functional. The following applies: route oral.
The test system of test [43] is Rattus norvegicus. Put plainly: Acquisition time in Scopolamine induced avoidance test (performed in rat) for antagonistic activity after peroral administration of 5 mg/kg (n=18). The format is functional. The following applies: route oral.

Molecules are shown by their SMILES.

As for `CCCn1c(=O)c2nc(C3CCCC3)[nH]c2n(CCc2ccc(NC(C)=O)cc2)c1=O`, the Acquisition time is 20.5 s in the test with Mus musculus [1]; 18.9 s with Mus musculus [3]; 15.9 s in the test on Rattus norvegicus [5]; 15.5 s with Rattus norvegicus [7]; 12.2 s with Mus musculus [8]; 27.8 s in the test on Mus musculus [14]. Further, the Acquisition time with Mus musculus [15] came to 23.9 s; with Mus musculus [17], 18.8 s; in the test on Rattus norvegicus [18] it was 12.6 s; in the test with Rattus norvegicus [20], 15.4 s; in the test on Rattus norvegicus [23] it was 13.8 s. The Retention time with Rattus norvegicus [2] was 116 s; with Rattus norvegicus [4], 175 s; in the test with Mus musculus [6] it was 32.2 s; in the test on Rattus norvegicus [9] it was 130 s; in the test with Mus musculus [10], 38.7 s; in the test with Mus musculus [11], 20 s. For the same compound, the Retention time in the test on Rattus norvegicus [12] worked out at 170 s; in the test on Rattus norvegicus [13] it was 187 s; in the test with Mus musculus [16], 75.4 s; in the test on Mus musculus [21], 137 s; in the test with Mus musculus [22], 47.5 s. The compound also returned an inhibitory constant (Ki) on Adenosine A2 receptor of more than 100 µM. In test [19], this compound displayed an inhibition of 66%.
As for `CCCn1c(=O)c2nc(C3CCC(=O)C3)[nH]c2n(CCC)c1=O` (centres undefined), the Retention time in the test on Mus musculus [24] was found to be 339 s; in the test with Mus musculus [26], 322 s; in the test with Rattus norvegicus [28], 85.9 s; with Rattus norvegicus [29], 169 s; in the test on Mus musculus [30] it was 234 s; in the test with Rattus norvegicus [32] it was 126 s. Further, the Retention time in the test on Mus musculus [34] is 319 s; in the test with Rattus norvegicus [35], 163 s; with Rattus norvegicus [36], 75.9 s. Further, the Acquisition time in the test with Rattus norvegicus [25] is on record as 13.2 s; in the test with Mus musculus [27], 20.8 s; with Mus musculus [37], 15.1 s; in the test on Mus musculus [38], 15.1 s; with Rattus norvegicus [39], 12.8 s; in the test with Rattus norvegicus [40] it was 16.4 s. Besides, the Acquisition time is 11.4 s with Rattus norvegicus [41], 22 s in the test with Mus musculus [42] and 9.8 s in the test with Rattus norvegicus [43]. In addition, the Locomotor activity came to 6134 Counts with Mus musculus [31] and 8204 Counts in the test with Mus musculus [33].

The values above are taken from ChEMBL document CHEMBL1126778, “Adenosine A1 antagonists. 3. Structure-activity relationships on amelioration against scopolamine- or N6-((R)-phenylisopropyl)adenosine-induced cognitive disturbance” (J Med Chem, 1993).
